Measurements published in article PMC7075522 (ACS infectious diseases, 2016).

Tests used:
[1] = tested on: DENV in BHK-21 and NIH3T3 cells; settings: cited from earlier work
[2] = tested on: sera of 24 SARS-positive patients; assay type: binding, human

Row | Substance | ADE of DENV [1] | Immunoreactivity with sera [2]
1 | CPFLKQNEPEDIDCW | blocked this ADE in a dose-dependent manner | –
2 | LYQDVN [S597–602] | – | immunoreactive with the tested sera of 24 SARS-positive patients
